How the values were obtained:
Assay type in all cases: physicochemical
[1] = Water content (Karl Fischer moisture meter); conditions: aconitate/citrate products, Table 4
Excerpt: 6. Water content: a Karl Fischer moisture meter is used to test the water content (retained to two decimal places).

[2] = Hardness (Shore hardness tester, GB/T 531-2008); conditions: PVC plastic: 100 parts PVC resin, 35 parts plasticizer, 2 parts oxidized polyethylene wax, 5 parts octyltin maleate
Experimental: The aconitates and tributyl citrate prepared in the above examples and comparative examples were added as plasticizers to PVC resin to obtain PVC plastics. […] The above raw materials were mixed and prepared using the same mixing process to obtain finished PVC products. The performance tests were performed on different plasticizers and the obtained PVC finished products in the above examples and comparative examples. […] Three points were selected for each group of samples, each point was tested once, and a median value was taken. • 2. […] Compatibility: tests were performed using a water value method. Since water molecules are polar, the compatibility between the plasticizer and water can characterize the compatibility between the plasticizer and polar materials (PVC, PLA, and nitrile rubber). When a certain plasticizer has good compatibility with water, it has good compatibility with PVC, and vice versa. In the experiment, 2.5 g of plasticizer and 25 g of acetone were added to a beaker, titrated with a burette filled with deionized water, and agitated while titrating until turbidity appears, and the volume of deionized water consumed was recorded. • 4. Glass transition temperature (Tg): the glass transition temperature was tested using a dynamic mechanical analyzer. Test conditions: nitrogen was taken as the carrier gas, at a test temperature range of -40 to 80°C, a heating rate of 3°C/min, and a frequency of 1 Hz.

[3] = Chromaticity (platinum-cobalt colorimetry); conditions: aconitate/citrate products, Table 4; colour comparison at 25°C
Experimental: 3. Chromaticity: preparation of 500# platinum-cobalt colorimetric standard stock solution: 1.2450 g of potassium chloroplatinate and 1.0000 g of cobalt chloride were weighed, with an accuracy of 0.0002 g, the mixture was dissolved in 100 mL of hydrochloric acid, and then diluted to 1000 mL with distilled water. This solution is just the 500# colorimetric standard comparison solution.
Preparation of colorimetric standards below 500#: different amounts of the 500# stock solution was prepared, and diluted with distilled water to the volume of a colorimetric tube to prepare colorimetric standard solutions of any number. The calculation formula is as follows: V = (N×V1)/500 [formula]
In the formula, V is the volume of the 500# standard stock solution taken to prepare the N# colorimetric standard solution, in mL; V1 is the volume of the colorimetric tube used, in mL; and N is the number of the colorimetric standard solution to be prepared.
Color comparison determination was performed at 25°C.

[4] = Residual amounts of fat-soluble and water-soluble pigments (HPLC); conditions: aconitate/citrate products, Table 4
Experimental: 7. Residual amounts of fat-soluble pigments and water-soluble pigments: • a high-performance liquid chromatograph (HPLC) was used, and the instrument sensitivity and stability of the detector should comply with the provisions of GB/T 16631-2008. Chromatographic column: C18 column; injector: 10 µL micro-syringe; solvent: acetonitrile (HPLC grade); acquisition time: 15 min; mobile phase: 80% acetonitrile (HPLC grade) and 20% deionized water; injection volume: 1 µL; wavelength: 230 nm.
Test: the instrument was adjusted according to the above provisions. After the baseline was stable, 0.2 µL of the sample was injected using a micro-syringe, and the integrator or chromatographic workstation was started at the same time. A pigment concentration-integral area standard curve was established by testing the integral areas of pigments with different concentrations. When the pigment content was measured, the corresponding pigment integral area was automatically given by the instrument, and the pigment concentration was obtained by comparing with the standard curve. The ratio of the pigment concentration to the sample concentration is the pigment content.

[5] = Acid value (KOH titration); conditions: aconitate/citrate products, Table 4
Experimental: The aconitates and citrates prepared in the above examples and comparative examples were tested for acid value, purity, chromaticity, yield, triester conversion rate, and water content. […] The mixture was neutralized with 0.02 mol·L^-1 potassium hydroxide aqueous solution until a faint pink color appears, and the consumed volume Vo was recorded. 1 g of the sample (accurate to 0.01 g) was weighed using a ground-neck conical flask, then one portion of the above neutralized solution was added. After the sample was completely dissolved, the sample was titrated with 0.02 mol·L^-1 potassium hydroxide-ethanol standard titration solution (the titration should be completed within 30 seconds) until a faint pink color appeared and persisted for 5 seconds without fading, which was considered as an end point. The consumed volume V was recorded. […] Chromatographic column: C18 column; injector: 10 µL micro-syringe; solvent: acetonitrile (HPLC grade); acquisition time: 15 min; mobile phase: 80% acetonitrile (HPLC grade) and 20% deionized water; injection volume: 1 µL; wavelength: 230 nm.

[6] = Glass transition temperature (dynamic mechanical analyzer); conditions: PVC plastic with 35 parts plasticizer; -40 to 80°C, 3°C/min, 1 Hz
Experimental: (§1) The aconitates and tributyl citrate prepared in the above examples and comparative examples were added as plasticizers to PVC resin to obtain PVC plastics. The PVC plastics include 100 parts of PVC resin, 35 parts of plasticizer, 2 parts of oxidized polyethylene wax, and 5 parts of octyltin maleate. The above raw materials were mixed and prepared using the same mixing process to obtain finished PVC products. The performance tests were performed on different plasticizers and the obtained PVC finished products in the above examples and comparative examples. […] Three points were selected for each group of samples, each point was tested once, and a median value was taken. • 2. […] Compatibility: tests were performed using a water value method. Since water molecules are polar, the compatibility between the plasticizer and water can characterize the compatibility between the plasticizer and polar materials (PVC, PLA, and nitrile rubber). When a certain plasticizer has good compatibility with water, it has good compatibility with PVC, and vice versa. In the experiment, 2.5 g of plasticizer and 25 g of acetone were added to a beaker, titrated with a burette filled with deionized water, and agitated while titrating until turbidity appears, and the volume of deionized water consumed was recorded. • 4. Glass transition temperature (Tg): the glass transition temperature was tested using a dynamic mechanical analyzer. Test conditions: nitrogen was taken as the carrier gas, at a test temperature range of -40 to 80°C, a heating rate of 3°C/min, and a frequency of 1 Hz.

[7] = Compatibility (water value method); conditions: 2.5 g plasticizer and 25 g acetone titrated with deionized water until turbidity; Table 5
Experimental: as §1

[8] = Tensile properties (GB/T 1040-2006): tensile modulus at 100%, elongation at break, elastic modulus; conditions: PVC plastic with 35 parts plasticizer; 50 mm/min, 25°C
Experimental: as §1

Row | SMILES | Water content [1] [%] | Hardness/Shore D [2] [Shore D] | Chromaticity [3] [Pt-Co] | Residual amounts of fat-soluble pigments [4] [ppm] | Residual amounts of water-soluble pigments [4] [ppm] | Acid value [5] [KOH/g] | Tg [6] [°C] | Compatibility [7] [mL] | Elastic modulus [8] [MPa] | Elongation at break [8] [%] | Tensile modulus at 100% [8] [MPa]
1 | CCCCOC(=O)C=C(CC(=O)OCCCC)C(=O)OCCCC [Example 26, tributyl aconitate] | 0.04 | 45 | 70 | 2015 | 465 | 0.05 | 28.8 | 12.2 | 178.3 | 234.1 | 17.5
2 | CCCCOC(=O)C=C(CC(=O)OCCCC)C(=O)OCCCC [Example 27, tributyl aconitate] | 0.05 | 45 | 200 | 4650 | 415 | 0.05 | 28.5 | 12.4 | 166.7 | 230.3 | 17.3
3 | CCCCOC(=O)C=C(CC(=O)OCCCC)C(=O)OCCCC [Example 28, tributyl aconitate] | 0.04 | 42 | 40 | 1658 | 408 | 0.05 | 28.6 | 14.4 | 88.5 | 248.6 | 15.2
4 | CCCCOC(=O)C=C(CC(=O)OCCCC)C(=O)OCCCC [Example 29, tributyl aconitate] | 0.03 | 42 | 60 | 435 | 1302 | 0.05 | 28.8 | 14.9 | 92.6 | 251.6 | 15.4
5 | CCCCOC(=O)C=C(CC(=O)OCCCC)C(=O)OCCCC [Example 30, tributyl aconitate] | 0.04 | 43 | 65 | 463 | 1501 | 0.05 | 28.9 | 13.2 | 134.8 | 241.7 | 15.8
6 | CCCCOC(=O)C=C(CC(=O)OCCCC)C(=O)OCCCC [Example 31, tributyl aconitate] | 0.03 | 45 | 60 | 427 | 1715 | 0.05 | 29.6 | 12.5 | 157.6 | 231.5 | 17.2
7 | CCCCOC(=O)C=C(CC(=O)OCCCC)C(=O)OCCCC [Example 32, tributyl aconitate] | 0.02 | 43 | 60 | 382 | 1325 | 0.05 | 28.7 | 13.1 | 133.4 | 241.2 | 15.6
8 | CCCCOC(=O)C=C(CC(=O)OCCCC)C(=O)OCCCC [Example 33, tributyl aconitate] | 0.04 | 47 | 100 | 395 | 4064 | 0.05 | 30.8 | 11.3 | 204.5 | 223.7 | 18.2
